Test results from patent US4524059A, “Fatty acid analogs” (The General Hospital Corporation, priority 1983, dated 1985).
Where two headings read alike, the source gives them in different places.

What was measured:
[1] = dog, in vivo
Protocol: (§2) Mongrel dogs are anesthetized with sodium pentabarbitol (Diabatol, 0.55 cc/kg) and 0.8-3 mCi of [^11 C] MHDA is injected through a femoral vein. After 1 minute, serial blood samples are taken using a femoral vein catheter to determine the blood clearance rate. A 3 ml aliquot is taken every minute for the first 5 minutes, every 5 minutes for the next 15 minutes, and every 10 minutes for the next hour. The blood samples are weighed, counted in a well-scintillation counter, and the activity corrected for decay.
(§3) In order to determine the distribution over time of the [^11 C] […] Prior to imaging, each dog is placed between the camera heads, a phantom filled with an aqueous solution of ^68 Ga Cl3 is placed beneath the animal, and transmission images taken. Sequential images are collected for 1 minute each at the following times: 3 minutes, 8 minutes, 13 minutes, 28 minutes, 48 minutes, and 60 minutes. The images are corrected for decay and for photon attenuation.
(§4) In a companion biodistribution study, uptake in 2 dogs in different areas of the myocardium and average uptake for the whole heart are determined. […] Positron tomography images are obtained of the heart and liver of the 2 dogs 3, 13, and 48 minutes after injection with [^11 C] […] Into each dog there is injected, sequentially, [^11 C] […] HDA.

[2] = Tissue distribution study in CD Fischer rats (organ radioactivity, NaI well scintillation counter); type: in vivo; settings: rat
Protocol: CD Fischer rats (175-225 g) are anesthetized with ether and 0.2 ml ([…]) of [^11 C] BMHDA is injected through the femoral vein. The rats are sacrificed by ether asphyxiation at 5, 15, 30, and 60 minutes after dosing. The appropriate organs are excised and radioactivity measured in a NaI (T1) well scintillation counter.

[3] = Myocardial kinetics by positron tomography in adult, fasted, human volunteers; type: in vivo; settings: 1-5 mCi intravenously
Protocol: (§1) The myocardial kinetics of BMHDA are evaluated in adult, fasted, human volunteers by positron tomography. Following attenuation measurements, volunteers receive between 1-5 mCi [^11 C] BMHDA intravenously and serial images are recorded for 30 min. No changes in heart rate, blood pressure, ECG, or respiratory rate are observed.

[4] = Imaging study of a canine heart one hour post-LAD ligation; type: in vivo; settings: dog
Source text: In addition to its long retention time, [^11 C] […] An imaging study of a canine heart following [^11 C]

[5] = Heart rate, blood pressure, ECG and respiratory rate in human volunteers receiving the tracer; type: in vivo; settings: 1-5 mCi intravenously
Protocol: as §1

[6] = Biodistribution in mice; type: in vivo
[7] = Sequential positron tomography imaging of the heart in a mongrel dog, 201Tl as control; type: in vivo
Protocol: Solutions of [^131 I]-BMPTA and, as a control, ^201 T1, are injected sequentially in a mongrel dog. After each injection, sequential images of the dog's heart are obtained using positron tomography.

[8] = Biodistribution and positron tomography imaging of the heart and liver in mongrel dogs; settings: dog, images 3, 13 and 48 minutes after injection, [^11 C] BMHDA versus [^11 C] HDA
Protocol: as §2, §3, §4

[9] = throughout the monitoring period

CCCCCCCCCCCCCCC(C)C[11C](=O)O (stereo not drawn) [[^11 C] BMHDA, [1-^11 C] beta-methylheptadecanoic acid]
radioactivity in the myocardium over time [1]: remains constant throughout the experiment (60 minutes)
region of highest regional uptake in the myocardium [1]: left ventricle
wash-out from / retention in the myocardium [1]: much higher retention in the myocardium
extraction by the heart muscle ([2]; i.v. (femoral vein), 5-60 min): selectively extracted by the heart muscle
retention of radioactivity in the heart ([2]; i.v. (femoral vein), 5-60 min): retained in the heart for up to one hour
liver activity ([2]; i.v., 5-60 min): increases during the course of the study
lung activity ([2]; i.v., compared with heart activity): at all times lower than heart activity
time in which myocardial activity approaches a constant level [3]: ≤ 3 min
myocardial activity for the remainder of the observation ([3]; serial images for 30 min): constant for the remainder of the observation
uptake in normal areas of the heart [4]: very high uptake
uptake in the apex, the region in which the infarct is located [4]: much lower uptake
uptake pattern [4]: desirably selective uptake pattern
ECG [5]: No changes
blood pressure [5]: No changes
heart rate [5]: No changes
respiratory rate [5]: No changes

CC(CCCCCCCCCCCc1ccc([131I])cc1)CC(=O)O (stereo not drawn) [[^131 I]-BMPTA, Beta-methyl-omega-(p-[^131 I]iodophenyl) tetradecanoic acid]
time of peak uptake by the kidney [6]: 15 min
uptake in the heart ([6]; 5 minutes after injection): high levels of uptake
uptake in the liver ([6]; 5 minutes after injection): high levels of uptake
uptake by the kidney after the peak ([6]; 30 minutes after injection): declining slightly
maintenance of radioactivity in heart and liver ([6]; over the 30 minutes of the experiment): high levels of radioactivity generally being maintained
radioactivity in blood [6, 9]: lower throughout the monitoring period
radioactivity in skeletal muscle [6, 9]: lower throughout the monitoring period
radioactivity in the lungs [6, 9]: lower throughout the monitoring period
retention by the heart muscle compared to ^201 T1 [7]: longer retention
time after injection over which clear images of the heart are obtained [7]: as long as two hours after the injection
activity in the heart over the initial 60 minute period ([7]; 60 minutes): remains essentially the same

CCCCCCCCCCCCCCCCC(=O)O [[^11 C] HDA, [^11 C] heptadecanoic acid]
wash-out from / retention in the myocardium [8]: rapidly washes out of the tissue
